pIC50: −log10 of the molar value.
Target: human PAD4 (Homo sapiens (Human), UniProt Q9UM07)
Experiment: In Vitro PAD4 BAEE Biochemical Assay
Conditions: geometric mean of multiple experiments
In short: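 Deimination of BAEE substrate (3 mM) measured as ammonia via o-phthalaldehyde–DTT isoindole fluorescence, 405/535 nm. Tag-free bacterially expressed human PAD4 at 5 nM with 2 mM calcium chloride, pH 7.6 MOPS buffer, 30 min compound preincubation then 2 h reaction, both at 25 °C.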

[1] = human PAD4, BAEE substrate, 5 nM PAD4, 2 mM calcium chloride, 3 mM BAEE

Sequence of human PAD4 (Q9UM07 2-663): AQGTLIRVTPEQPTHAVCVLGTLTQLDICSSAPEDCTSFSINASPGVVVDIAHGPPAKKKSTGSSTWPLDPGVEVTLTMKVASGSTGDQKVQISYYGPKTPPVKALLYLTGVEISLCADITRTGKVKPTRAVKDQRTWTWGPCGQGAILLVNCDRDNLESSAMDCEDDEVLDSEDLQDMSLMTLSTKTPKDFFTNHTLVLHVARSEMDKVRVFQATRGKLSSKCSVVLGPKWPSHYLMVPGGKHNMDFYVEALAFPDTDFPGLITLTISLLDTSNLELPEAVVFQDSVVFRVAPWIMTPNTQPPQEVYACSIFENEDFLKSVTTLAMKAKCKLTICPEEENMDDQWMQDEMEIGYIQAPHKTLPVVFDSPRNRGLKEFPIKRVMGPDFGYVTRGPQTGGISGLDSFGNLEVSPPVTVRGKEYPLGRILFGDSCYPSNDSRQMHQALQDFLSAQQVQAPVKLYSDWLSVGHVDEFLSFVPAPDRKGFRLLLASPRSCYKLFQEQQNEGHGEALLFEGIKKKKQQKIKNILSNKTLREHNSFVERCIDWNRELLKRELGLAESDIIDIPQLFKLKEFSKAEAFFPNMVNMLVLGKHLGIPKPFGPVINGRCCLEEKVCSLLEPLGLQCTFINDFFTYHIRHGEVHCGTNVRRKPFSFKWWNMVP

Structure (SMILES) | pIC50 [1] | pIC50 (recombinant PAD4 5 nM, 2 mM calcium chloride, 3 mM BAEE substrate)
COc1cc(C(=O)N2C[C@H](N)CC[C@@H]2C)cc2nc(-c3cc4ccc(-c5cccnc5S(C)(=O)=O)nc4n3CC3CC3)n(C)c12 [Example 265, ((2S,5R)-5-amino-2-methylpiperidin-1-yl)(2-(1-(cyclopropylmethyl)-6-(2-(methylsulfonyl)pyridin-3-yl)-1H-pyrrolo[2,3-b]pyridin-2-yl)-7-methoxy-1-methyl-1H-benzo[d]imidazol-5-yl)methanone] | 6.57 | 
COc1cc(C(=O)N2C[C@H](N)CC[C@@H]2C)cc2nc(-c3cc4ccc(-c5cccnc5-c5cncnc5)nc4n3CC3CC3)n(C)c12 [Example 266, ((2S,5R)-5-amino-2-methylpiperidin-1-yl)(2-(1-(cyclopropylmethyl)-6-(2-(pyrimidin-5-yl)pyridin-3-yl)-1H-pyrrolo[2,3-b]pyridin-2-yl)-7-methoxy-1-methyl-1H-benzo[d]imidazol-5-yl)methanone] | 6.46 | 
COc1cc(C(=O)N2C[C@H](N)CC[C@@H]2C)cc2nc(-c3cc4ccc(-c5cccnc5-c5cncs5)nc4n3CC3CC3)n(C)c12 [Example 267, ((2S,5R)-5-amino-2-methylpiperidin-1-yl)(2-(1-(cyclopropylmethyl)-6-(2-(thiazol-5-yl)pyridin-3-yl)-1H-pyrrolo[2,3-b]pyridin-2-yl)-7-methoxy-1-methyl-1H-benzo[d]imidazol-5-yl)methanone] | 6.86 | 
COc1cc(C(=O)N2CCC[C@@H](N)C2)cc2nc(-c3cc4ccc(-c5cccnc5-c5csc(N6CCCCC6)n5)nc4n3CC3CC3)n(C)c12 [Example 270, (R)-(3-aminopiperidin-1-yl)(2-(1-(cyclopropylmethyl)-6-(2-(2-(piperidin-1-yl)thiazol-4-yl)pyridin-3-yl)-1H-pyrrolo[2,3-b]pyridin-2-yl)-7-methoxy-1-methyl-1H-benzo[d]imidazol-5-yl)methanone] | 6.45 | 
COc1cc(C(=O)N2C[C@H](N)CC[C@@H]2C)cc2nc(-c3cc4ccc(N5CCCCC5=O)nc4n3CC3CC3)n(C)c12 [Example 272, 1-(2-(5-((2S,5R)-5-amino-2-methylpiperidine-1-carbonyl)-7-methoxy-1-methyl-1H-benzo[d]imidazol-2-yl)-1-(cyclopropylmethyl)-1H-pyrrolo[2,3-b]pyridin-6-yl)piperidin-2-one] | 6.11 | 
COc1cc(C(=O)N2C[C@H](N)CC[C@@H]2C)cc2nc(-c3cc4ccc(-c5c(C)ccc6[nH]ncc56)nc4n3CC3CC3)n(C)c12 [Example 273, ((2S,5R)-5-amino-2-methylpiperidin-1-yl)(2-(1-(cyclopropylmethyl)-6-(5-methyl-1H-indazol-4-yl)-1H-pyrrolo[2,3-b]pyridin-2-yl)-7-methoxy-1-methyl-1H-benzo[d]imidazol-5-yl)methanone] | 5.63 | 
COc1cc(C(=O)N2C[C@H](N)CC[C@@H]2C)cc2nc(-c3cc4ccc(-c5sc(C(C)C)nc5C)nc4n3CC3CC3)n(C)c12 [Example 274, ((2S,5R)-5-amino-2-methylpiperidin-1-yl)(2-(1-(cyclopropylmethyl)-6-(2-isopropyl-4-methylthiazol-5-yl)-1H-pyrrolo[2,3-b]pyridin-2-yl)-7-methoxy-1-methyl-1H-benzo[d]imidazol-5-yl)methanone] | 5.31 | 
COc1cc(C(=O)N2C[C@H](N)CC[C@@H]2C)cc2nc(-c3cc4ccc(-c5c(C)ccnc5-c5ccccc5)nc4n3CC3CC3)n(C)c12 [Example 276, ((2S,5R)-5-amino-2-methylpiperidin-1-yl)(2-(1-(cyclopropylmethyl)-6-(4-methyl-2-phenylpyridin-3-yl)-1H-pyrrolo[2,3-b]pyridin-2-yl)-7-methoxy-1-methyl-1H-benzo[d]imidazol-5-yl)methanone] | 6.37 | 
COc1cc(C(=O)N2CCC[C@@H](N)C2)cc2nc(-c3cc4ccc(NC(C)(C)C)nc4n3CC3CC3)n(C)c12 [Example 278, (R)-(3-aminopiperidin-1-yl)(2-(6-(tert-butylamino)-1-(cyclopropylmethyl)-1H-pyrrolo[2,3-b]pyridin-2-yl)-7-methoxy-1-methyl-1H-benzo[d]imidazol-5-yl)methanone] | 5.03 | 
COc1cc(C(=O)N2C[C@H](N)CC[C@@H]2C)cc2nc(-c3cc4ccc(N5C(=O)CCC5C)nc4n3CC3CC3)n(C)c12 (stereo partly drawn) [Example 280, 1-(2-(5-((2S,5R)-5-amino-2-methylpiperidine-1-carbonyl)-7-methoxy-1-methyl-1H-benzo[d]imidazol-2-yl)-1-(cyclopropylmethyl)-1H-pyrrolo[2,3-b]pyridin-6-yl)-5-methylpyrrolidin-2-one] | 6.27 | 
COc1cc(C(=O)N2C[C@H](N)CC[C@@H]2C)cc2nc(-c3cc4ccc(-c5cccnc5-c5ccccc5)nc4n3CC3CC3)n(C)c12 [Example 283, ((2S,5R)-5-amino-2-methylpiperidin-1-yl)(2-(1-(cyclopropylmethyl)-6-(2-phenylpyridin-3-yl)-1H-pyrrolo[2,3-b]pyridin-2-yl)-7-methoxy-1-methyl-1H-benzo[d]imidazol-5-yl)methanone] | 6.49 | 
COC(=O)N(C)c1ccc2cc(-c3nc4cc(C(=O)N5C[C@H](N)[C@@H]6CC[C@H]5C6)cc(OC)c4n3C)n(CC3CC3)c2n1 [Example 287, methyl (2-(5-((1S,4R,5R)-4-amino-2-azabicyclo[3.2.1]octane-2-carbonyl)-7-methoxy-1-methyl-1H-benzo[d]imidazol-2-yl)-1-(cyclopropylmethyl)-1H-pyrrolo[2,3-b]pyridin-6-yl)(methyl)carbamate] |  | 6.97

Other lines, results leading:

pIC50 [1] | pIC50 (recombinant PAD4 5 nM, 2 mM calcium chloride, 3 mM BAEE substrate) | Structure (SMILES)
6.41 |  | COc1cc(C(=O)N2C[C@H](N)CC[C@@H]2C)cc2nc(-c3cc4ccc(-c5c(C)ccnc5-c5cnc(C)s5)nc4n3CC3CC3)n(C)c12 [Example 268, ((2S,5R)-5-amino-2-methylpiperidin-1-yl)(2-(1-(cyclopropylmethyl)-6-(4-methyl-2-(2-methylthiazol-5-yl)pyridin-3-yl)-1H-pyrrolo[2,3-b]pyridin-2-yl)-7-methoxy-1-methyl-1H-benzo[d]imidazol-5-yl)methanone]
6.49 |  | COc1cc(C(=O)N2C[C@H](N)CC[C@@H]2C)cc2nc(-c3cc4ccc(-c5c(C)ccnc5-c5sc(C)nc5C)nc4n3CC3CC3)n(C)c12 [Example 269, ((2S,5R)-5-amino-2-methylpiperidin-1-yl)(2-(1-(cyclopropylmethyl)-6-(2-(2,4-dimethylthiazol-5-yl)-4-methylpyridin-3-yl)-1H-pyrrolo[2,3-b]pyridin-2-yl)-7-methoxy-1-methyl-1H-benzo[d]imidazol-5-yl)methanone]
6.87 |  | CCc1nc(C)c(-c2ncccc2-c2ccc3cc(-c4nc5cc(C(=O)N6CCC[C@@H](N)C6)cc(OC)c5n4C)n(CC4CC4)c3n2)s1 [Example 271, (R)-(3-aminopiperidin-1-yl)(2-(1-(cyclopropylmethyl)-6-(2-(2-ethyl-4-methylthiazol-5-yl)pyridin-3-yl)-1H-pyrrolo[2,3-b]pyridin-2-yl)-7-methoxy-1-methyl-1H-benzo[d]imidazol-5-yl)methanone]
6.18 |  | COc1cc(C(=O)N2C[C@H](N)CC[C@@H]2C)cc2nc(-c3cc4ccc(-c5ccc6nnnn6c5C)nc4n3CC3CC3)n(C)c12 [Example 275, ((2S,5R)-5-amino-2-methylpiperidin-1-yl)(2-(1-(cyclopropylmethyl)-6-(5-methyltetrazolo[1,5-a]pyridin-6-yl)-1H-pyrrolo[2,3-b]pyridin-2-yl)-7-methoxy-1-methyl-1H-benzo[d]imidazol-5-yl)methanone]
5.46 |  | COc1nccc(-c2ccccc2)c1-c1ccc2cc(-c3nc4cc(C(=O)N5C[C@H](N)CC[C@@H]5C)cc(OC)c4n3C)n(CC3CC3)c2n1 [Example 277, ((2S,5R)-5-amino-2-methylpiperidin-1-yl)(2-(1-(cyclopropylmethyl)-6-(2-methoxy-4-phenylpyridin-3-yl)-1H-pyrrolo[2,3-b]pyridin-2-yl)-7-methoxy-1-methyl-1H-benzo[d]imidazol-5-yl)methanone]
5.93 |  | COc1cc(C(=O)N2C[C@H](N)CC[C@@H]2C)cc2nc(-c3cc4ccc(N5CCCC5=O)nc4n3CC3CC3)n(C)c12 [Example 279, 1-(2-(5-((2S,5R)-5-amino-2-methylpiperidine-1-carbonyl)-7-methoxy-1-methyl-1H-benzo[d]imidazol-2-yl)-1-(cyclopropylmethyl)-1H-pyrrolo[2,3-b]pyridin-6-yl)pyrrolidin-2-one]
6.19 |  | COc1cc(C(=O)N2C[C@H](N)CC[C@@H]2C)cc2nc(-c3cc4ccc(N5C(=O)CCCC5C)nc4n3CC3CC3)n(C)c12 (stereo partly drawn) [Example 281, 1-(2-(5-((2S,5R)-5-amino-2-methylpiperidine-1-carbonyl)-7-methoxy-1-methyl-1H-benzo[d]imidazol-2-yl)-1-(cyclopropylmethyl)-1H-pyrrolo[2,3-b]pyridin-6-yl)-6-methylpiperidin-2-one]
6.84 |  | COc1cc(C(=O)N2C[C@H](N)CC[C@@H]2C)cc2nc(-c3cc4ccc(-n5c(C)cccc5=O)nc4n3CC3CC3)n(C)c12 [Example 282, 1-(2-(5-((2S,5R)-5-amino-2-methylpiperidine-1-carbonyl)-7-methoxy-1-methyl-1H-benzo[d]imidazol-2-yl)-1-(cyclopropylmethyl)-1H-pyrrolo[2,3-b]pyridin-6-yl)-6-methylpyridin-2(1H)-one]
6.49 |  | COc1cc(C(=O)N2C[C@H](N)CC[C@@H]2C)cc2nc(-c3cc4ccc(N5C(=O)CC[C@@H]5C)nc4n3CC3CC3)n(C)c12 [Example 285, (S)-1-(2-(5-((2S,5R)-5-amino-2-methylpiperidine-1-carbonyl)-7-methoxy-1-methyl-1H-benzo[d]imidazol-2-yl)-1-(cyclopropylmethyl)-1H-pyrrolo[2,3-b]pyridin-6-yl)-5-methylpyrrolidin-2-one]

— patent US11878965B2, “Inhibitors of peptidylarginine deiminases” (Gilead Sciences, Inc., priority 2020, dated 2024)
